The results in this text go back to US8440825B2, “Fumaric acid salt of varenicline” (Medichem S.A., priority 2008, dated 2013).

Structures can show the parent of a compound that is named as a salt.

A short description of data set [1]: Stability studies of varenicline crystalline salts (one year storage, HPLC and XRD). It is filed as physicochemical. The conditions noted are these: for Purity (HPLC) % 1 year later: after one year at room temperature; for Purity (HPLC) % 1 year later / Purity (HPLC) % initial / XRD result 1 year later: normal pressure, ambient atmosphere; for Stability in terms of chemical purity and polymorphic form (in words): after one year of storage; for XRD result Initial: initial polymorphic form, before storage; for Purity (HPLC) % initial: before storage at room temperature; for XRD result 1 year later: polymorphic form after one year at room temperature. As for the experimental part: The varenicline crystalline salts were stored under standard conditions (i.e. room temperature, normal pressure, ambient atmosphere). The samples were analyzed after one year by HPLC and XRD.

Data set [2] can be described thus: Solubility in water of varenicline salts. The class given is physicochemical.

Regarding varenicline L-malate [Malate Form II], in data set [1], the “Purity (HPLC) % 1 year later” value amounted to 99.66%, the “XRD result Initial” value is recorded as “Form II”, the “Purity (HPLC) % initial” value is 99.94% and the “XRD result 1 year later” value was “Form II”. Also, the “Stability in terms of chemical purity and polymorphic form (in words)” value (“Stability in terms” below) in data set [1] (listed as varenicline L-malate Form II) was “highly stable in terms of chemical purity and of polymorphic form”.
In the case of varenicline L-malate [Example 7], in data set [1] (listed as Malate Form I), the “Purity (HPLC) % 1 year later” value was found to be 99.47%, the “XRD result Initial” value is reported as “Form I” and the “Purity (HPLC) % initial” value is 99.95%. The “Stability in terms” value in data set [1] (listed as varenicline L-malate Form I) was “stable in terms of chemical purity”. For the same compound, in data set [2], the Solubility in water is over 20 mg/mL and the “Solubility in water (in words)” value is “highly soluble”.
For varenicline maleate [Example 8], in data set [1], the “Purity (HPLC) % 1 year later” value is 99.90%; the “Stability in terms” value was “highly stable in terms of chemical purity and of polymorphic form”; the “XRD result Initial” value was “Form I”; the “Purity (HPLC) % initial” value amounted to 100%. Also, the “XRD result 1 year later” value in data set [1] was “Form I”. Moreover, in data set [2], the Solubility in water is over 20 mg/mL and the “Solubility in water (in words)” value is listed as “highly soluble”.
Consider `O=S(=O)(O)CCS(=O)(=O)O.c1cnc2cc3c(cc2n1)C1CNCC3C1.c1cnc2cc3c(cc2n1)C1CNCC3C1` [Example 18, Varenicline Hemi-1,2-Ethane Disulfonate], for which, in data set [1], the “Purity (HPLC) % 1 year later” value amounted to 99.36%, the “XRD result Initial” value is on record as “Form I” and the “Purity (HPLC) % initial” value came out at 99.97%.
Turning to “varenicline S-2-pyrrolidinon-5-carboxylate [Example 14]”, in data set [1], the “Purity (HPLC) % 1 year later” value is 99.83%; the “Stability in terms” value was “highly stable in terms of chemical purity and in terms of polymorphic form”; the “XRD result Initial” value is recorded as “Form I”; the “Purity (HPLC) % initial” value was 99.99%. The “XRD result 1 year later” value in data set [1] is on record as “Form I”.
In the case of `O=C(O)CCCC(=O)O.c1cnc2cc3c(cc2n1)C1CNCC3C1` [Example 3, varenicline glutarate], in data set [1], the “Purity (HPLC) % 1 year later” value is on record as 97.90%, the “XRD result Initial” value is given as “Form I” and the “Purity (HPLC) % initial” value is recorded as 98.77%.
As to varenicline di-mesylate [Example 11], in data set [1], the “Purity (HPLC) % 1 year later” value is given as 99.28%, the “XRD result Initial” value is recorded as “Form I” and the “Purity (HPLC) % initial” value was 99.99%. Besides, the Solubility in water in data set [2] is recorded as over 20 mg/mL.
In the case of `CC(O)C(=O)O.c1cnc2cc3c(cc2n1)C1CNCC3C1` (racemic) [Example 17, varenicline DL-lactate], in data set [1], the “Purity (HPLC) % 1 year later” value turned out to be 98.48%, the “XRD result Initial” value is recorded as “Form I” and the “Purity (HPLC) % initial” value is given as 98.98%.
In the case of varenicline succinate [Example 15], the Solubility in water in data set [2] is on record as over 20 mg/mL.
On to `O=C(O)CCC(=O)C(=O)O.c1cnc2cc3c(cc2n1)C1CNCC3C1` [Example 6, varenicline α-ketoglutarate], for which, in data set [1], the “Purity (HPLC) % 1 year later” value stood at 98.45%, the “XRD result Initial” value is recorded as “Form I” and the “Purity (HPLC) % initial” value worked out at 99.71%.
In the case of varenicline oxalate [Example 12], in data set [1], the “Purity (HPLC) % 1 year later” value came out at 99.72%, the “XRD result Initial” value is listed as “Form I” and the “Purity (HPLC) % initial” value is listed as 99.91%. Moreover, the Solubility in water in data set [2] is given as over 20 mg/mL.
varenicline fumarate [Example 2]: in data set [1], the “Purity (HPLC) % 1 year later” value worked out at 99.76%; the “Stability in terms” value was “highly stable in terms of chemical purity and of polymorphic form”; the “XRD result Initial” value is given as “Form I”; the “Purity (HPLC) % initial” value came to 99.84%. Besides, in data set [1], the “XRD result 1 year later” value was “Form I”. Also, in data set [2], the Solubility in water was over 20 mg/mL and the “Solubility in water (in words)” value is recorded as “highly soluble”.
Consider `c1cnc2cc3c(cc2n1)[C@@H]1CNC[C@H]3C1` [Hydrochloride, varenicline hydrochloride, reference compound], for which, in data set [1], the “Purity (HPLC) % 1 year later” value amounted to 99.68%, the “XRD result Initial” value is “Form II”, the “Purity (HPLC) % initial” value was 99.91% and the “XRD result 1 year later” value is recorded as “Forms II + III”.
`O=C(O)C(O)c1ccccc1.c1cnc2cc3c(cc2n1)C1CNCC3C1` (racemic) [Example 10, varenicline DL-mandelate]: in data set [1], the “Purity (HPLC) % 1 year later” value turned out to be 95.55%, the “XRD result Initial” value was “Form I” and the “Purity (HPLC) % initial” value is 99.93%.
On to varenicline phosphate [Example 13], for which, in data set [1] (listed as Phosphate Form I), the “Purity (HPLC) % 1 year later” value came to 99.89%, the “XRD result Initial” value is listed as “Form I”, the “Purity (HPLC) % initial” value is on record as 100% and the “XRD result 1 year later” value is recorded as “Form I”. In addition, the “Stability in terms” value in data set [1] was “highly stable in terms of chemical purity and in terms of polymorphic form”. For the same compound, in data set [2], the Solubility in water was over 20 mg/mL and the “Solubility in water (in words)” value is “highly soluble”.
varenicline galactarate [Example 16]: in data set [1], the “Purity (HPLC) % 1 year later” value came to 99.71%; the “Stability in terms” value is “highly stable in terms of chemical purity and of polymorphic form”; the “XRD result Initial” value is listed as “Form I”; the “Purity (HPLC) % initial” value is listed as 99.91%. Moreover, the “XRD result 1 year later” value in data set [1] is given as “Form I”. In addition, in data set [2], the Solubility in water is given as over 20 mg/mL and the “Solubility in water (in words)” value is “highly soluble”.
Regarding varenicline glycolate [Example 4], in data set [1], the “Purity (HPLC) % 1 year later” value is listed as 99.57%, the “XRD result Initial” value was “Form I” and the “Purity (HPLC) % initial” value was found to be 99.95%.
Regarding `O=C(O)CCCCC(=O)O.c1cnc2cc3c(cc2n1)C1CNCC3C1.c1cnc2cc3c(cc2n1)C1CNCC3C1` [Example 1, varenicline hemi-adipate], in data set [1], the “Purity (HPLC) % 1 year later” value worked out at 99.77%; the “Stability in terms” value was “highly stable in terms of chemical purity and of polymorphic form”; the “XRD result Initial” value is recorded as “Form I”; the “Purity (HPLC) % initial” value was 99.89%. Also, in data set [1], the “XRD result 1 year later” value is “Form I”.
Regarding “varenicline phosphate [Phosphate Form II]”, in data set [1], the “Purity (HPLC) % 1 year later” value is reported as 99.93%, the “XRD result Initial” value is “Form II”, the “Purity (HPLC) % initial” value is listed as 99.89% and the “XRD result 1 year later” value was “Form II”.
On to `O=C(O)CC(=O)O.c1cnc2cc3c(cc2n1)C1CNCC3C1` [Example 9, varenicline malonate], for which, in data set [1], the “Purity (HPLC) % 1 year later” value is recorded as 99.45%, the “XRD result Initial” value was “Form I” and the “Purity (HPLC) % initial” value amounted to 99.91%.
With `c1cnc2cc3c(cc2n1)[C@@H]1CNC[C@H]3C1` [Example 5, varenicline hydrochloride], the solubility in data set [2] was over 20 mg/mL.
